Assay results taken from patent US6525058B1, “Pharmaceutical composition for oral use” (Yamanouchi Pharmaceutical Co., LTD, priority 1999, dated 2003).
Where a name gives a salt, the structure may show the parent alone.

Assay: Stability of gantofiban citrate per se and when compounded with common fillers, binders and disintegrating agents
Format: physicochemical

Stability in a preparation containing it (compounded with fillers, binders and disintegrating agents (lactose, D-mannitol, finely crystalline cellulose, corn starch etc.)): decomposed with a lapse of time
Stability of the substance per se (gantofiban citrate alone): stable substance
Compound: CCOC(=O)CN1CCN(C[C@@H]2CN(c3ccc(C(N)=NC(=O)OC)cc3)C(=O)O2)CC1 [gantofiban citrate, 1-ethyl methylester 4-[[(5R)-3-[p-(carboxyamidino)phenyl]-2-oxo-5-oxazolidinyl]methyl]-1-piperazineacetate]
